This note sets out measurements from patent publication US8822503B2, “2-pyridone compounds” (Taisho Pharmaceutical Co., Ltd, priority 2009, dated 2014).

The structures appear in SMILES notation.

The target of this assay is T1, human liver GK (Homo sapiens, UniProt P35557).
T1 construct: GST (glutathione S-transferase) (N); made in house; host or cells: E. coli
T1 sequence (P35557 1-466 isoform P35557-2): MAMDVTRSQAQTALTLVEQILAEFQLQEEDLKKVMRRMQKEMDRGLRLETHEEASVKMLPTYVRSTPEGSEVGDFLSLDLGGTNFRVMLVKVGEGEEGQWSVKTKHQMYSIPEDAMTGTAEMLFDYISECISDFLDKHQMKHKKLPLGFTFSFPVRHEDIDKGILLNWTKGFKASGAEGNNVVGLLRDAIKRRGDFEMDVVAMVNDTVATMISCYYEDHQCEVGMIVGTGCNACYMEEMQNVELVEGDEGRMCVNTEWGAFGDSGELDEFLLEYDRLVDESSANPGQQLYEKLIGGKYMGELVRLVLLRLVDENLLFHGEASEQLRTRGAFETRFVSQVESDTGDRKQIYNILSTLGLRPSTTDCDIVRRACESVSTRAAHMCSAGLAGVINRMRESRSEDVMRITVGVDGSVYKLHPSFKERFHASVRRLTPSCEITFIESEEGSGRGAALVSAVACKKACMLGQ
Briefly: GK activation test. The settings on record: test compound concentration needed to activate 50% of maximum activation ability; 4 mM 14C-labeled glucose, 2 mM ATP, room temperature, 20 minutes. It counts as biochemical. Here is the method:
The GK activation test for the test compounds was performed by the method of Irwin A. Rose et al. (J. Biol. Chem. 1964 January; 239:12-7) with partial modifications.
The enzyme source used in this assay, human liver GK, was expressed in E. coli as a fusion protein with GST (glutathione S-transferase) added to the amino terminus and was purified using Glutathione Sepharose 4B (Amersham Biosciences).
The test was carried out using flat-bottom 96-well plates (Sumitomo Bakelite Co., Ltd.). A solution of the test compound in dimethyl sulfoxide (DMSO) and DMSO as a control were added to each well of the plates at a final DMSO concentration of 1%. 25 mM Hepes-KOH (pH=7.1), 25 mM KCl, 2 mM MgCl2, 2 mM ATP, 4 mM ^14C-labeled glucose (Muromachi Yakuhin) and 1 mM DTT (dithiothreitol) were further added at the indicated final concentrations, respectively. Finally, human liver GK was added at 0.24 microgram per well and the reaction was started. The reaction was carried out at room temperature.
After 20 minutes, AG1-X4 resin (BioRad) suspended in 25 mM Hepes-KOH (pH=7.1) was added and the reaction product, labeled glucose 6-phosphate, was allowed to bind thereto. The whole volume was transferred to MultiScreen plates (Millipore) and the resin was washed with water. Thereafter, the labeled glucose 6-phosphate binding to the resin was eluted with a 0.5 M NaCl solution. The labeling activity of the eluted labeled glucose 6-phosphate was measured as an index of GK activity.
The GK activity maximally activated by the test compound was described as maximum activation ability, and the test compound concentration needed to activate 50% of that ability was described as EC50.
With `CC(C)c1ccc(/C(=C/[C@H]2CCC(=O)C2)c2ccc(S(C)(=O)=O)cc2)[nH]c1=O` [Example 1-107, 6-{(E)-1-[4-(Methylsulfonyl)phenyl]-2-[(1S)-3-oxocyclopentyl]ethenyl}-3-(propan-2-yl)pyridin-2(1H)-one], the EC50 lay in the range of 10 to 500 nM.

The compound `O=C1CC[C@H](C[C@@H](c2ccc(Cl)c(Cl)c2)c2ccc(C3CC3)c(=O)[nH]2)N1` [Example 4-208, 3-Cyclopropyl-6-{(1S)-1-(3,4-dichlorophenyl)-2-[(2R)-5-oxopyrrolidin-2-yl]ethyl}pyridin-2(1H)-one] had an EC50 of 3000 to 10000 nM.

For `CCOc1ccc(/C(=C\[C@H]2CCC(=O)C2)c2ccc(CC)c(=O)[nH]2)cc1Cl` [Example 1-59, 6-{(E)-1-(3-Chloro-4-ethoxyphenyl)-2-[(1S)-3-oxocyclopentyl]ethenyl}-3-ethylpyridin-2(1H)-one], the EC50 was in the range of 10 to 500 nM.

With `CN1CCN(S(=O)(=O)c2ccc(/C(=C\C3CCCC3)c3ccc(Cl)c(=O)[nH]3)cc2)CC1` [Example 1-46, 3-Chloro-6-[(E)-2-cyclopentyl-1-{4-[(4-methylpiperazin-1-yl)sulfonyl]phenyl}ethenyl]pyridin-2(1H)-one], the EC50 is 500 to 3000 nM.

`COc1ccc(/C(=C\C2CCOCC2)c2ccc(C(F)(F)F)c(=O)[nH]2)cc1Cl` [Example 1-54, 6-[(E)-1-(3-Chloro-4-methoxyphenyl)-2-(tetrahydro-2H-pyran-4-yl)ethenyl]-3-(trifluoromethyl)pyridin-2(1H)-one] yielded a half-maximal effective concentration (EC50) of 500 to 3000 nM.

Take `Cc1ccc(/C(=C\[C@H]2CCC(=O)N2)c2ccc(C3CC3)c(=O)[nH]2)cc1` [Example 4-4, 3-Cyclopropyl-6-{(E)-1-(4-methylphenyl)-2-[(2R)-5-oxopyrrolidin-2-yl]ethenyl}pyridin-2(1H)-one]: the EC50 is 10 to 500 nM.

In turn, `O=C1CC[C@H](/C=C(\c2cc(C(F)(F)F)cc(C(F)(F)F)c2)c2ccc(C3CC3)c(=O)[nH]2)N1` [Example 4-119, 6-{(E)-1-[3,5-Bis(trifluoromethyl)phenyl]-2-[(2R)-5-oxopyrrolidin-2-yl]ethenyl}-3-cyclopropylpyridin-2(1H)-one] displayed an EC50 of 500 to 3000 nM.

Turning to `Cc1ccc(/C(=C/[C@H]2CCC(=O)C2)c2ccc(SCCCO)c(Cl)c2)[nH]c1=O` [Example 1-73, 6-{(E)-1-{3-Chloro-4-[(3-hydroxypropyl)sulfanyl]phenyl}-2-[(1S)-3-oxocyclopentyl]ethenyl}-3-methylpyridin-2(1H)-one], the EC50 fell in the range of 10 to 500 nM.

In the case of `O=C1CC[C@H](C[C@H](c2ccc(Cl)c(Cl)c2)c2ccc(C3CC3)c(=O)[nH]2)N1` [Example 4-207, 3-Cyclopropyl-6-{(1R)-1-(3,4-dichlorophenyl)-2-[(2R)-5-oxopyrrolidin-2-yl]ethyl}pyridin-2(1H)-one], the EC50 is 10 to 500 nM.

For the compound `O=C1CC[C@H](CC(c2ccc(C3CC3)cc2)c2ccc(Cl)c(=O)[nH]2)N1` (single isomer, unassigned) [Example 4-316], the EC50 is 3000 to 10000 nM.

In turn, `Cc1ccc(C(C[C@H]2CCC(=O)N2)c2ccc(C3CC3)c(=O)[nH]2)cc1Cl` (single isomer, unassigned) [Example 4-216] registered an EC50 of 3000 to 10000 nM.

The compound `CCc1ccc(/C(=C/[C@H]2CCC(=O)C2)c2ccc(SCCCO)c(Cl)c2)[nH]c1=O` [Example 1-75, 6-{(E)-1-{3-Chloro-4-[(3-hydroxypropyl)sulfanyl]phenyl}-2-[(1S)-3-oxocyclopentyl]ethenyl}-3-ethylpyridin-2(1H)-one] came in with an EC50 of 10 to 500 nM.

Consider `CS(=O)(=O)Nc1ccc(/C(=C\[C@H]2CCC(=O)N2)c2ccc(Cl)c(=O)[nH]2)cc1` [Example 4-155, N-(4-{(E)-1-(5-Chloro-6-oxo-1,6-dihydropyridin-2-yl)-2-[(2R)-5-oxopyrrolidin-2-yl]ethenyl}phenyl)methanesulfonamide], for which the EC50 is 500 to 3000 nM.

Regarding `CSc1ccc(/C(=C\CCNC(C)=O)c2ccc(C3CC3)c(=O)[nH]2)cc1` [Example 1-94, N-{(3E)-4-(5-Cyclopropyl-6-oxo-1,6-dihydropyridin-2-yl)-4-[4-(methylsulfanyl)phenyl]but-3-en-1-yl}acetamide], the EC50 was 3000 to 10000 nM.

In turn, `O=C1CC[C@H](CC(c2ccc(Cl)c(C(F)(F)F)c2)c2ccc(C3CC3)c(=O)[nH]2)N1` (single isomer, unassigned) [Example 4-221] came in with an EC50 of 500 to 3000 nM.

For `CC(C)(C)c1ccc(C(=C[C@H]2CCC(=O)N2)c2ccc(C3(O)CCC3)c(=O)[nH]2)cc1` [Example 4-203, 6-{1-(4-tert-Butylphenyl)-2-[(2R)-5-oxopyrrolidin-2-yl]ethenyl}-3-(1-hydroxycyclobutyl)pyridin-2(1H)-one], the EC50 was 3000 to 10000 nM.

Compound `CCc1ccc(C(C[C@H]2CCC(=O)N2)c2ccc(Cl)c(=O)[nH]2)cc1` (single isomer, unassigned) [Example 4-309] displayed an EC50 of 3000 to 10000 nM.

As to `COc1cc(C(C[C@H]2CCC(=O)N2)c2ccc(C3CC3)c(=O)[nH]2)ccc1Cl` (single isomer, unassigned) [Example 4-227], the EC50 is 500 to 3000 nM.

`CSc1ccc(/C(=C\[C@H]2CCC(O)C2)c2ccc(C3CC3)c(=O)[nH]2)cc1Cl` (stereo partly drawn) [Example 1-85, 6-{(E)-1-[3-Chloro-4-(methylsulfanyl)phenyl]-2-[(1S)-3-hydroxycyclopentyl]ethenyl}-3-cyclopropylpyridin-2(1H)-one] gave an EC50 of 10 to 500 nM.

Compound `CCc1ccc(/C(=C/[C@H]2CCC(=O)C2)c2ccc(S(=O)(=O)CCCN(CC)CC)c(Cl)c2)[nH]c1=O` [Example 1-78, 6-{(E)-1-(3-Chloro-4-{[3-(diethylamino)propyl]sulfonyl}phenyl)-2-[(1S)-3-oxocyclopentyl]ethenyl}-3-ethylpyridin-2(1H)-one] gave an EC50 of 10 to 500 nM.

In turn, `CCCc1ccc(C(CC2CCCC2)c2ccc(S(C)(=O)=O)cc2)[nH]c1=O` (centres unmarked) [Example 2-9, 6-{2-Cyclopentyl-1-[4-(methylsulfonyl)phenyl]ethyl}-3-propylpyridin-2(1H)-one] yielded an EC50 of 500 to 3000 nM.

With `O=C1CC[C@H](/C=C(\c2ccc(C3CC3)cc2)c2ccc(C3CC3)c(=O)[nH]2)N1` [Example 4-268, 3-Cyclopropyl-6-{(E)-1-(4-cyclopropylphenyl)-2-[(2R)-5-oxopyrrolidin-2-yl]ethenyl}pyridin-2(1H)-one], the EC50 was 10 to 500 nM.

As for `CCN(CC)CCCCOc1ccc(/C(=C\[C@H]2CCC(=O)N2)c2ccc(C3CC3)c(=O)[nH]2)cc1Cl` [Example 4-62, 6-{(E)-1-{3-Chloro-4-[4-(diethylamino)butoxy]phenyl}-2-[(2R)-5-oxopyrrolidin-2-yl]ethenyl}-3-cyclopropylpyridin-2(1H)-one], the EC50 was in the range of 10 to 500 nM.

For the compound `O=C1CC[C@H](CC(c2ccc(OC(F)F)c(Cl)c2)c2ccc(C3CC3)c(=O)[nH]2)N1` (single isomer, unassigned) [Example 4-357], the EC50 was 3000 to 10000 nM.

The compound `COc1cc(/C(=C\[C@H]2CCC(=O)N2)c2ccc(C3CC3)c(=O)[nH]2)ccc1C(F)F` [Example 4-135, 3-Cyclopropyl-6-{(E)-1-[4-(difluoromethyl)-3-methoxyphenyl]-2-[(2R)-5-oxopyrrolidin-2-yl]ethenyl}pyridin-2(1H)-one] gave an EC50 of 10 to 500 nM.

In turn, `O=c1[nH]c(/C(=C/CCCO)c2ccc(S(=O)(=O)C3CC3)cc2)ccc1C(F)(F)F` [Example 1-99, 6-{(1E)-1-[4-(Cyclopropylsulfonyl)phenyl]-5-hydroxypent-1-en-1-yl}-3-(trifluoromethyl)pyridin-2(1H)-one] displayed an EC50 of 500 to 3000 nM.

Take `NC(=O)c1cccc(/C(=C\[C@H]2CCC(=O)N2)c2ccc(Cl)c(=O)[nH]2)c1` [Example 4-153, 3-{(E)-1-(5-Chloro-6-oxo-1,6-dihydropyridin-2-yl)-2-[(2R)-5-oxopyrrolidin-2-yl]ethenyl}benzamide]: the EC50 was 3000 to 10000 nM.

`O=C1CC[C@H](/C=C(\c2ccc(S(=O)(=O)C3CC3)c(Cl)c2)c2ccc(C3CC3)c(=O)[nH]2)N1` [Example 4-289, 6-{(E)-1-[3-Chloro-4-(cyclopropylsulfonyl)phenyl]-2-[(2R)-5-oxopyrrolidin-2-yl]ethenyl}-3-cyclopropylpyridin-2(1H)-one] showed a half-maximal effective concentration (EC50) of 10 to 500 nM.

The compound `CSc1ccc(/C(=C\C2CCCC2)c2ccc(C(C)C)c(=O)[nH]2)cc1` [Example 1-3, 6-{(E)-2-Cyclopentyl-1-[4-(methylsulfanyl)phenyl]ethenyl}-3-(propan-2-yl)pyridin-2(1H)-one] displayed an EC50 of 10 to 500 nM.

The term EC50 denotes the midpoint of the concentration-response curve.
